row,SMILES,melting point [°C]
1,Cc1cccc(CC2CNC(=O)O2)c1 (centres undefined),89 to 90.5
2,CCCCCCCCCCC[C@H](CC(=O)N[C@@H](CO)CCCNC(=O)OCc1ccccc1)OCc1ccccc1,118
3,Cc1nnc2n1-c1sc3c(c1C(c1ccccc1Cl)=NC2)CCN(C(=S)NCc1ccccc1C(F)(F)F)C3,178 to 184
4,O=[N+]([O-])c1ccc(S(=O)(=O)Nc2ccc(F)cc2)c([N+](=O)[O-])c1,127 to 128
5,Cc1ccc2c(c1)N=C(N1CCN(C)CC1)c1c(sc3ccccc13)N2,184 to 186
6,O=C(O)/C=C/c1cccc(-c2nc(=O)c3ccccc3s2)n1,116
7,CCOC(=O)c1sc(Oc2cccnc2)c2c1CCc1cnn(C)c1-2,247 to 248
8,Cc1ccccc1NC(=O)CN1CC2CCC(C1)N2S(=O)(=O)c1cccc2nsnc12,169 to 170
9,CC(=O)C1CCC2C3CCC4CC(O)C(C)CC4(C)C3C(=O)CC12C (centres undefined),142 to 146
10,COC(=O)C=C1NC(Cc2ccccc2)COC1=O (centres undefined),82 to 83
11,Cc1c(Cc2ccccc2)c(=O)oc2cc(OCc3nnn[nH]3)cc(OCc3nnn[nH]3)c12,229 to 233
12,CC(C)n1nc(-c2cc(C(N)=O)c(=O)[nH]c2-c2ccccc2)ccc1=O,> 250
13,NN=C1c2ccccc2-c2ccc(Cl)cc21,139 to 143
14,CCOCn1nccc1C(O)c1ccc(OC)c(Cl)c1Cl (centres undefined),155 to 157
15,Nc1cccc2nc(=O)cccc12,175 to 178
16,Cc1cc(F)c(F)c(C=O)c1O,53 to 56
17,CSc1nc2ccccc2n1C1CCNCC1,114 to 115
18,COc1ccc(-n2nc(C(F)F)cc2-c2ccc(S(C)(=O)=O)cc2)cc1,135
19,CC(C)(C)c1ccc(C(=O)Nc2cn3nc(NCc4cccnc4)ccc3n2)cc1,232 to 233
20,Cc1ccc(CN2CCOCC2)cn1,51 to 52

row,SMILES,melting point [°C]
1,CNC(=O)Oc1ccc(NC(=O)C(Cl)(Cl)Cl)c(C)c1,185 to 187
2,C(=C\c1nc(COc2ccc(CCCn3ccnc3)cn2)co1)/c1ccccc1,120 to 121
3,O=C(Nc1cccc2c(=O)nc[nH]c12)c1c(Cl)cccc1Cl,> 250
4,O=c1c(-c2cc(=O)c3c(O)cccc3o2)cn(-c2ccccc2)c2ccccc12,> 300
5,O=[N+]([O-])c1ccc(OC2(c3ccccc3)CCNCC2)cc1,137 to 138
6,O=C1NCN2c3ccc(Cl)cc3[C@H]3CCN4CCC[C@H]1[C@H]4[C@H]32 (racemic),> 250
7,CC(C)(C)NC(=O)/C=C/c1ccc(C(=O)c2c(-c3ccc(O)cc3)sc3cc(O)ccc23)cc1,187 to 190
8,C=C(C)c1c2c(c(C)c(C)c1N1CCN(c3ccc(OC)cc3)CC1)OC(C)(C)C2,174 to 175
9,CS(=O)(=O)n1ccc2cc3c(cc21)C(C#N)C3 (centres undefined),142 to 144
10,CN(C)C(=O)c1nc2n(n1)-c1ccc([N+](=O)[O-])cc1C(c1ccccc1)=NC2,209 to 211
11,COc1ccc(C=CC(=O)C2C(=O)C=C(C)OC2=O)cc1 (centres undefined),205 to 207
12,CSc1ccc(-c2oc3ccccc3c(=O)c2-c2ccc(C(F)(F)F)cc2)cc1,189 to 192
13,O=c1nc(-c2cccc(CN3CCCCC3)n2)sc2ccccc12,162 to 163
14,CCCN(CCC)C(=O)C(C)Oc1nc(-c2ccccc2)nc2c1CCCC2 (centres undefined),73 to 74
15,Cc1csc(C)c1S(N)(=O)=O,135
16,CN(CCN(C)CCN1C(=O)c2cccc3cc4ccccc4c(c23)C1=O)CCN1C(=O)c2cccc3cc4ccccc4c(c23)C1=O,255
17,Cc1ccc2c(c1)C1(CCN(CCCC(=O)c3ccc(F)cc3)C1)CC2O (centres undefined),172 to 174
18,CC(C)c1ccc(C(=O)NCCCCN2CCN(C(c3ccccc3)c3ccccc3)CC2)c(O)n1,184 to 186
19,NC(=O)c1nc(-c2cccc(O)c2)nc2c1[nH]c(=O)n2C1CCCC1,360 to 361
